ChEMBL document CHEMBL1201862, “PubChem BioAssay data set” (2004)
Activity calls are given as the source filed them.

Legend:
[1] = growth suppression of beta-catenin-knockout colon cells, dose response, cell-based, HCT116, human colon tumor (AID 1045); type: functional;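 also: HCT116 colon tumor cells with beta catenin knocked out; cells exposed to compound for 60 hours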
[2] = growth suppression of PTEN-null colon cells, dose response, cell-based, HCT116 PTEN knockout (AID 1047); type: functional;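 also: HCT116 colon tumor cells with PTEN knocked out; cells exposed to compound for 60 hours before readout; potency for loss of cell viability measured by luminescence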
Cytochrome P450 3A4 = Cytochrome P450 3A4 (Homo sapiens, UniProt P08684);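 also: CYP3A4 tested as one member of a cytochrome P450 panel screen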
[3] = HEp-2 cell cytotoxicity, dose response, cytotoxicity control for RSV inhibitor project, HTS (AID 2410); type: functional; conditions: human respiratory syncytial virus
Cytochrome P450 1A2 = biological target: T1, Cytochrome P450 1A2 (Homo sapiens, UniProt P05177);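 also: PubChem cytochrome P450 panel assay, CYP1A2 panel member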
T1 sequence (P05177 whole entry): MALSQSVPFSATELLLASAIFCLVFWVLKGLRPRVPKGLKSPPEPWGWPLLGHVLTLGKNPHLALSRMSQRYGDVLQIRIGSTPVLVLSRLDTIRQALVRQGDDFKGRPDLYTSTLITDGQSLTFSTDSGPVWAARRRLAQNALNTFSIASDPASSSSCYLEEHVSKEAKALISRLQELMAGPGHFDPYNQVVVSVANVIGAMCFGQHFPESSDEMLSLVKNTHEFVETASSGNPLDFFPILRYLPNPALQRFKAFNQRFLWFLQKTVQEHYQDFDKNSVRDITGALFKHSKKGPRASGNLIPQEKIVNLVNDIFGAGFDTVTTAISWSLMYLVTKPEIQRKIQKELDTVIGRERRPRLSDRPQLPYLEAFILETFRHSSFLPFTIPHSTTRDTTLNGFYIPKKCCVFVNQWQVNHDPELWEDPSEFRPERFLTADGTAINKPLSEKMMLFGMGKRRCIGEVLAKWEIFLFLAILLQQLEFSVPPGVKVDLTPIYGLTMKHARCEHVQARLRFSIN

H9c2 = test: cells; type: functional, cell-based; conditions: Rattus norvegicus, H9c2, Myocardium
[4] = biological target: T2, Corticotropin-releasing factor receptor 2/Corticotropin-releasing factor-binding protein (Homo sapiens, UniProt P24387+Q13324); test: activators of CRF receptor 2 with binding protein – uHTS hits, confirmation (AID 602473); type: functional; conditions: read-out: EC50_Mean
T2 sequence (Q13324 whole entry): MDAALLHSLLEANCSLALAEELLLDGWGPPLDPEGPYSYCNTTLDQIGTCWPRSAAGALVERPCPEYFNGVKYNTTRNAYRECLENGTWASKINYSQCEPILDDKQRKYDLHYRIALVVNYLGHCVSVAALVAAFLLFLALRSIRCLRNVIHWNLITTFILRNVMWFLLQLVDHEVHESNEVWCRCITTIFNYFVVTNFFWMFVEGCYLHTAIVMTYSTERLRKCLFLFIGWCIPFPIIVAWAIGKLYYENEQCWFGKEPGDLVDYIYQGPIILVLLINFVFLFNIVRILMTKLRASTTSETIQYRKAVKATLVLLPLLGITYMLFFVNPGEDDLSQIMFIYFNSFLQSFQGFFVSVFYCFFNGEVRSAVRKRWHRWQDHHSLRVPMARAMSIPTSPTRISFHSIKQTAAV
T2 sequence (P24387 whole entry): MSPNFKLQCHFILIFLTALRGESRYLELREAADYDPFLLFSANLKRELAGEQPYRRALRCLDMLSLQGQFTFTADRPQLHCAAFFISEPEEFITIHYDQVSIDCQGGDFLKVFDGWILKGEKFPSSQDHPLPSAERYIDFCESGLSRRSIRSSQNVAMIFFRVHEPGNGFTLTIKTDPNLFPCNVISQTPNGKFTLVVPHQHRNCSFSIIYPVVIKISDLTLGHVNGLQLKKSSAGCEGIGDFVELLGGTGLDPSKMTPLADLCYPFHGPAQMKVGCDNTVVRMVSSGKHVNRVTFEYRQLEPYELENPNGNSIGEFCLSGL

[5] = inhibitors of intracellular T. cruzi replication, confirmation, NIH3T3 host cells, beta-gal luminescence (AID 2044); type: functional, cell-based;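 also: intracellular parasites grown in NIH/3T3 mouse fibroblasts as host cells; luminescent beta-galactosidase reporter signal from transgenic T. cruzi replicating inside host cells; inhibitors lower the luminescence signal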
[6] = cytotoxicity toward NIH3T3 fibroblasts, dose response, counter-screen, cell-based, ATP luminescence, mouse fibroblasts (AID 2010); type: functional;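 also: cells exposed to compound for about 90 hours before reading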
[7] = tested on: Streptococcus sp. 'group A'; test: growth inhibition of control SK(-) GAS strain, dose response, counter-screen for streptokinase expression inhibitor project, luminescence, kanamycin, BacTiterGlo, confirmation (AID 1900); type: functional, organism-based
Streptococcus = test: Group A Streptococcus viability loss, dose response, counter-screen for streptokinase expression inhibitor project, luminescence, BacTiterGlo (AID 1915); type: functional, organism-based;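 also: potency for reduction of bacterial viability or growth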
[8] = Luminescence Cell-Based Dose Response HTS to Identify Activators of Luciferase Translation or Activity in H4 […] Cells. [Related pubchem assays: 1829 (Project Summary), 1814 (Primary HTS)]; type: functional
H4 = test: Luminescence Cell-Based Dose Response HTS to Identify Activators of 5'UTR Stem-Loop Driven Prion Protein mRNA Translation in H4 Neuroglioblastoma Cells. [Related pubchem assays: 1829 (Project Summary), 1814 (Primary HTS)]; type: functional; conditions: Homo sapiens
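For IC50 in this document: confirmatory concentration-response retest of ultra-high-throughput screening hits for modulation of myocardial damage; cell death induced by hydrogen peroxide oxidative stress; compound pretreatment for 60 min then peroxide exposure for 2 h; potency is for protecting the cells against peroxide damage rather than for killing them.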

Sequence of Cytochrome P450 3A4 (P08684 whole entry): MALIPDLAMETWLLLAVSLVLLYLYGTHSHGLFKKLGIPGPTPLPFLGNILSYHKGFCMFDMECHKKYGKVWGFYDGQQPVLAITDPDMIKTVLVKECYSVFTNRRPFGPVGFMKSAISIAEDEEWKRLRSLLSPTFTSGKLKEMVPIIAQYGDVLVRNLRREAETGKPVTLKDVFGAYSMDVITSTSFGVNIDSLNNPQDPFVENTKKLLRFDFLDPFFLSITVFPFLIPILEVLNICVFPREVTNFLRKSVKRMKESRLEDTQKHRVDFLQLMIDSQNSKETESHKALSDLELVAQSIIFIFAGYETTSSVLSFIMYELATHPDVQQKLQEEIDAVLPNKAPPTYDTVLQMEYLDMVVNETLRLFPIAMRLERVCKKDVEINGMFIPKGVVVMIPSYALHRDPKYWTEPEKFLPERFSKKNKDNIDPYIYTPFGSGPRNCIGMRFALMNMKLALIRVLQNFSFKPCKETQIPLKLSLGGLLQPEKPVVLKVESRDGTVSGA

## COC(=O)c1sccc1NC(=O)/C=C/c1ccc(Cl)cc1Cl
[1]
  EC50: 51.4 µM (active)
[2]
  EC50: 13.8 µM (active)

## COc1ccc(-n2c(=O)c(-c3ccc(F)cc3)nc3cnc(OC)nc32)cc1
Cytochrome P450 3A4
  AC50: 15.8 µM (inconclusive)

## CCCn1c(C(C)Nc2nc(-c3ccc(C)cc3)cs2)nc2ccccc21 (configuration not stated)
[3]
  CC50: 15.2 µM (active)

## Cc1nc2nc(-c3ccccc3)nn2c(C)c1C
[3]
  CC50: 39.4 µM (active)

## C[C@@H](C(=O)Nc1ccc2ccccc2c1)[C@H]1C[C@]1(C)[C@H](NS(=O)(=O)c1ccc(-c2ccccc2)cc1)c1ccccc1
Cytochrome P450 1A2
  AC50: 15.8 µM (inconclusive)

## CCN(CC)CCNC(=O)CCc1nnc(O)c2ccccc12
H9c2
  IC50: > 79 µM (inactive)

## O=c1[nH]c(=O)n(-c2ccccc2)c2c1C(C(F)(F)F)(C(F)(F)F)NC(CCC1CCCCC1)=N2
[4]
  EC50: 7.07 µM (active)

## O=C(O)c1[nH]c2c([N+](=O)[O-])cc([N+](=O)[O-])cc2c1C(=O)O
Cytochrome P450 1A2
  AC50: 0.126 µM (inconclusive)

## Cc1c(NC(=O)c2cc3c(s2)-c2ccccc2OC3)cccc1[N+](=O)[O-]
[3]
  CC50: 6.43 µM (active)

## N#CC1=C(N)Oc2c(c(=O)sc3ccccc23)C1c1cccnc1 (configuration not stated)
[5]
  EC50: 0.536 µM (active)
[6]
  EC50: 8.85 µM (active)

## NS(=O)(=O)c1ccc(/N=N\c2nc3c(S)ncnc3[nH]2)cc1
Cytochrome P450 1A2
  AC50: 6.31 µM (inconclusive)

## COc1ccc2c(c1)OC[C@H]1[C@H]2N2C(=O)CN(Cc3ccc(F)cc3)C(=O)[C@@]2(C)[C@H]1c1ccccc1
[3]
  CC50: 16.4 µM (active)

## [O-][n+]1c(CN2CCCCC2)nc2cccc3c2c1-c1ccccc1-3
Cytochrome P450 3A4
  AC50: 3.16 µM (inconclusive)

## O=C(c1ccc(COc2ccccc2Cl)o1)N1CCN(c2ccccc2)CC1
[3]
  CC50: 13.4 µM (active)

## Cc1cc(O)n2nc(Nc3cccc(Cl)c3)nc2n1
[4]
  EC50: > 53 µM (inactive)

## COc1ccc2[nH]cc(C(=O)CN3CCCCC3)c2c1
[4]
  EC50: > 53 µM (inactive)

## CCOc1ccccc1C(=O)Nc1cccc2cccnc12
[3]
  CC50: 30.4 µM (active)

## S=C(NC1CCCCC1)N1CCn2cccc2C1c1cccnc1 (configuration not stated)
[5]
  EC50: 0.379 µM (active)
[6]
  EC50: > 60 µM (not active)

## O=[N+]([O-])c1cc([N+](=O)[O-])c2[nH]nc(-c3ccccc3)c2c1
[5]
  EC50: 1.47 µM (active)
[6]
  EC50: > 60 µM (not active)

## COc1ccccc1OCCCn1cc(C=O)c2ccccc21
[3]
  CC50: 8.95 µM (active)

## COc1cccc(-c2nnc(Nc3nc4c(F)cccc4s3)o2)c1
[7]
  EC50: 0.767 µM (active)
Streptococcus
  EC50: 26.2 µM (active)

## N=c1c2c(-c3ccccc3)c(-c3ccccc3)n(Cc3ccco3)c2ncn1CCN1CCOCC1
[5]
  EC50: 1.53 µM (active)
[1]
  EC50: 8.19 µM (active)
[6]
  EC50: > 60 µM (not active)
[2]
  EC50: 7.92 µM (active)

## COc1ccccc1NS(=O)(=O)c1cc(NC(=O)c2cccs2)ccc1N1CCCCC1
[5]
  EC50: 1.23 µM (active)
[6]
  EC50: > 30 µM (not active)

## CSCCC(NC(=O)c1ccco1)C(=O)OCc1cc([N+](=O)[O-])cc2c1OCOC2 (configuration not stated)
[4]
  EC50: 6.29 µM (active)

## COc1cc(/C=C(\C#N)c2nc3ccccc3s2)ccc1OCC(=O)Nc1ccccc1
[1]
  EC50: 560 µM (active)
[2]
  EC50: 25.2 µM (active)

## CN(C)CCCNc1c2c(nc3cc(-c4cccc(F)c4)nn13)CCC2
[5]
  EC50: 0.181 µM (active)
[6]
  EC50: > 60 µM (not active)

## O=C(Nc1ccc(Cl)cc1)N1CCCN(Cc2ccc(F)cc2)C1
[1]
  EC50: 16.4 µM (active)
[2]
  EC50: 17.2 µM (active)

## NNC(=O)CNc1cccc(Br)c1
Cytochrome P450 3A4
  AC50: 2.51 µM (inconclusive)

## COc1ccc(Cl)cc1NC(=O)CSc1nnc(Cc2cccn2C)n1-c1ccc(F)cc1
[1]
  EC50: 72.9 µM (active)
[2]
  EC50: 80.8 µM (active)

## CN1CCN(c2ccc(-c3ccnn3C(=O)Nc3cccc(C(F)(F)F)c3)cc2)CC1
[8]
  EC50: 3.08 µM (active)
H4
  EC50: 5.98 µM (active)

## Nc1nc2nc(-c3ccccc3)cc(C(F)(F)F)c2s1
[3]
  CC50: 35.5 µM (active)

## CCn1cc(C(=O)NCc2ccc3c(c2)OCO3)c(=O)c2cc(F)c(N3CCN(C)CC3)cc21
[5]
  EC50: 1.16 µM (active)
[6]
  EC50: > 60 µM (not active)

## CCc1cccc2cc3c(N)c(C(=O)Nc4ccc(S(=O)(=O)N5CCCC5)cc4)sc3nc12
[3]
  CC50: 38 µM (active)

## CC(C(=O)NC1CCCC1)N(C(=O)Cn1nnc(-c2ccc(F)cc2)n1)c1ccccc1F (configuration not stated)
H9c2
  IC50: > 79 µM (inactive)

## CN1/C(=C\C=C(/C#N)C(=O)Nc2ccccc2F)C(C)(C)c2ccccc21
[4]
  EC50: 5.05 µM (active)

## O=C(NCCNc1ccc([N+](=O)[O-])cc1)c1ccccc1Br
Cytochrome P450 3A4
  AC50: 28.2 µM (inconclusive)

## O=C(Nc1ccc(N2CCN(C(=O)c3ccc(Cl)cc3)CC2)cc1)c1ccc(Br)o1
[5]
  EC50: 4.09 µM (active)
[6]
  EC50: > 60 µM (not active)

## C[C@@H](C1=C(CCN(C)C)Cc2ccccc21)c1ccccn1
Cytochrome P450 1A2
  AC50: 20 µM (inconclusive)

## Oc1nc(-c2ccccc2)n(-c2ccc(Cl)cc2)n1
[4]
  EC50: > 53 µM (inactive)

## COc1ccc(OC)c(C(=O)CSc2nnc(Cc3cccs3)n2CCc2ccccc2)c1
Cytochrome P450 1A2
  AC50: 7.08 µM (inconclusive)
Cytochrome P450 3A4
  AC50: 39.8 µM (inconclusive)

## Cc1cccc(N2CCN(c3nc4ccc(Cl)cc4n4cnnc34)CC2)c1C
[1]
  EC50: 20 µM (active)
[2]
  EC50: 19.1 µM (active)

## CCSc1nnc2nc3c(c(O)n12)C1(CCCC1)Cc1ccccc1-3
[7]
  EC50: 8.43 µM (active)
Streptococcus
  EC50: 8.43 µM (active)

## FC(F)(F)c1ccc2c(c1)nc(S)n2C1CC1
[3]
  CC50: 34.1 µM (active)

## Cc1cccc(Nc2nc(N3CCOCC3)nc(N3CCOCC3)n2)c1
[5]
  EC50: 0.465 µM (active)
[6]
  EC50: 5.8 µM (active)

## O=C(Nc1ccc2nn(-c3ccccc3)nc2c1)c1cccnc1
[3]
  CC50: > 50 µM (active)

## CC(C)(C)C(=O)Cn1c(=N)n(Cc2ccccc2Cl)c2ccccc21
[5]
  EC50: 2.39 µM (active)
[6]
  EC50: > 60 µM (not active)

## COc1ccc(CCNC(=O)COc2ccc(S(=O)(=O)NC3CCCCC3)cc2Cl)cc1
Cytochrome P450 1A2
  AC50: 25.1 µM (inconclusive)

## Cc1ncc(C/N=C\c2ccc(Cl)cc2)c(N)n1
Cytochrome P450 1A2
  AC50: 5.01 µM (inconclusive)

## Cc1ccc(NC(=O)N(Cc2ccco2)Cc2cc3cc(C)cc(C)c3nc2Cl)cc1
[5]
  EC50: 2.78 µM (active)
[6]
  EC50: > 30 µM (not active)

## C[C@]12CC[C@H](O)C[C@@H]1CC[C@H]1[C@H]2CC[C@]2(C)[C@H](C(=O)CO)CC[C@@H]12
Cytochrome P450 3A4
  AC50: 1 µM (inconclusive)

## O=C(CCCN1C(=O)/C(=C/c2ccccc2Cl)SC1=S)N1CCCC1
[3]
  CC50: 15.5 µM (active)

## CCOc1ccc(CN2CCN(Cc3nc(C(C)C)cs3)CC2CCO)cc1 (configuration not stated)
[5]
  EC50: 0.845 µM (active)
[6]
  EC50: > 60 µM (not active)

## COc1ccc(-c2nc3cnc(N(C)C)nc3n(C[C@H]3CCCO3)c2=O)cc1
Cytochrome P450 3A4
  AC50: 6.31 µM (inconclusive)

## O=C(CCn1c(=S)[nH]c2ccccc2c1=O)NCCCN1CCOCC1
Cytochrome P450 3A4
  AC50: 7.08 µM (inconclusive)

## COc1ccc(/C=N\NC(=O)O)cc1
Cytochrome P450 1A2
  AC50: 0.501 µM (inconclusive)

## COc1ccc(-c2oc(/N=C/N3CCCC3)c(C#N)c2-c2ccc(OC)cc2)cc1
[5]
  EC50: 1.75 µM (active)
[6]
  EC50: > 60 µM (not active)

## Cc1c(/C=N\NC(=O)C2COc3ccc(C(C)(C)C)cc3O2)c2ccccc2n1C (configuration not stated)
[5]
  EC50: 2.25 µM (active)
[6]
  EC50: > 60 µM (not active)
